{"source": "paper PMC12592173", "about": "“Targeted degradation of EGFR 19Del by PROTACs suppresses tumor growth in non-small-cell lung cancer” (Frontiers in Pharmacology, 2025)", "key": {"[1]": {"biological_target": "EGFR^Del19 (Homo sapiens, UniProt P00533+Q96SW2, DEL746-750)", "experiment": "Western blot of EGFR degradation in HCC827 cells", "assay_type": "cell-based", "set-up": "host or cells: HCC827", "details": "for Degradation activity, in words: HCC827 (EGFR^Del19) cells; for EGFR degradation (%): HCC827, 24 h, average of two independent experiments, NA = not active; for Effect of inhibitor pretreatment on EGFR^Del19 degradation induced by compound 14 / Rescue of EGFR^Del19 reduction induced by compound 12 or 14 (competition): HCC827; for Effect of inhibitor pretreatment on EGFR^Del19 degradation induced by compound 14: 2 μM MG132 or 5 μM MLN4924 for 2 h, then 10 nM of 14 for 8 h; for Rescue of EGFR^Del19 reduction induced by compound 12 or 14 (competition): 2 h pretreatment, 10 nM degrader 4 h", "method": "HCC827 and H1975 cell lines were purchased from ATCC (United States) and cultured according to the manuals. Cells were grown in monolayers in appropriate media supplemented with 10% fetal bovine serum and 1% antibiotic/antimycotic solution.\n(§1) Cells at 70%–90% confluence were lysed in RIPA buffer with complete protease inhibitor cocktail (Roche Applied Science, Penzberg, Germany). Lysates were quantified, separated on SDS-PAGE gels, and transferred onto PVDF membranes, followed by the blockade with 5% milk in TBS+ 0.1% Tween-20 buffer for 1 h at room temperature. The following primary antibodies were used: anti-EGFR (1:50000, ABclonal Technology, Wuhan, China), anti-pEGFR (Tyr1068, […], Cell Signaling Technology, MA, United States), anti-AKT (1:10000, ABclonal Technology, Wuhan, China), anti-pAKT (1:10000, ABclonal Technology, Wuhan, China), and anti-β-actin (1:10000, ABclonal Technology, Wuhan, China). Protein bands were detected using Tanon High-signal ECL Western Blotting Substrate (Tanon Science and Technology Co., Ltd., Shanghai, China). The band density of the protein of interest was quantified using ImageJ."}, "[2]": {"test_system": "pEGFR and pAKT", "experiment": "Western blot of downstream signaling in HCC827 cells", "assay_type": "cell-based, human", "method": "as §1"}, "[3]": {"test_system": "H1975 cells", "experiment": "Cell viability (CCK-8) in H1975 cells", "assay_type": "cell-based", "details": "up to 1 μM, 96 h", "method": "(§2) Cells (5 × 10^3 for 48 h or 1 × 10^3 for 96 h) were seeded in 96-well plates, allowed to attach overnight, and then incubated with various concentrations of compounds for 48 h or 96 h. The viability of cells was determined using Cell Counting Kit-8 (CCK-8; Dojindo), and IC50 was calculated using GraphPad Prism (version 6.0). For colony formation assays, cells (1 × 10^3 cells/well) seeded in 24-well plates were treated with different concentrations of compounds and replaced with fresh media with compounds every 4 days. After 7 days, the cells were washed with PBS, fixed with methanol, and stained with 0.1% crystal violet solution."}, "[4]": {"test_system": "HCC827 cells", "experiment": "Cell viability (CCK-8) in HCC827 cells", "assay_type": "cell-based, human", "details": "for IC50: Homo sapiens, CCK-8", "method": "as §2, with “The” for “Cells (5 × 10^3 for 48 h or 1 × 10^3 for 96 h) were seeded in 96-well plates, allowed to attach overnight, and then incubated with various concentrations of compounds for 48 h or 96 h. The”"}, "[5]": {"biological_target": "EGFR^WT protein (Homo sapiens, UniProt P00533)", "experiment": "Immunoblots of EGFR in H1299, H460 and HeLa cells", "assay_type": "cell-based", "details": "H1299, H460 and HeLa cell lines, up to 1 μM, 24 h", "method": "as §1"}, "[6]": {"test_system": "H1299 cells", "experiment": "Cell viability (CCK-8) in H1299 cells", "assay_type": "cell-based", "details": "up to 1 μM, 96 h", "method": "as §2"}, "[7]": {"test_system": "HeLa cells", "experiment": "Cell viability (CCK-8) in HeLa cells", "assay_type": "cell-based", "details": "up to 1 μM, 96 h", "method": "as §2"}, "[8]": {"biological_target": "T1, EGFR^L858R/T790M protein (Homo sapiens, UniProt P00533, L858R/T790M)", "T1 construct": "nor the EGFR^L858R/T790M protein in the H1975 cell line, up to 1 μM; host or cells: H1975", "experiment": "Immunoblots of EGFR in H1975 cells", "assay_type": "cell-based", "details": "H1975 cell line, up to 1 μM, 24 h", "method": "as §1"}}, "note": "Where “and” joins values, the source holds several entries; their conditions need not be identical. Equal values may be shown once. Where a SMILES comes first, the peptide text is derived from it. The star is where a group is joined. Cbz = O=C(OCc1ccccc1)*"}
{"compound": "O=C1CCC(N2C(=O)c3ccc(OCCCCCOc4cc5ncnc(Nc6ccc(F)c(Cl)c6)c5cc4OCCCN4CCOCC4)cc3C2=O)C(=O)N1", "note": "(stereo not drawn) [Compound 1]", "values": [{"measurement": "Degradation activity, in words", "setting": "[1]; 10 nM", "value": "no degradation effect"}, {"measurement": "EGFR degradation (%)", "setting": "[1]; 10 nM", "value": "−6.6 ± 4.2", "unit": "%"}]}
{"compound": "O=C1CCC(N2C(=O)c3ccc(OCCCCCCCCOc4cc5ncnc(Nc6ccc(F)c(Cl)c6)c5cc4OCCCN4CCOCC4)cc3C2=O)C(=O)N1", "note": "(stereo not drawn) [Compound 2]", "values": [{"measurement": "Degradation activity, in words", "setting": "[1]; 10 nM", "value": "weak degradation activities"}, {"measurement": "EGFR degradation (%)", "setting": "[1]; 10 nM", "value": "15.3 ± 5.9", "unit": "%"}]}
{"compound": "O=C1CCC(N2C(=O)c3ccc(OCCCCCCCCCCCOc4cc5ncnc(Nc6ccc(F)c(Cl)c6)c5cc4OCCCN4CCOCC4)cc3C2=O)C(=O)N1", "note": "(stereo not drawn) [Compound 3]", "values": [{"measurement": "Degradation activity, in words", "setting": "[1]; 10 nM", "value": "weak degradation activities"}, {"measurement": "EGFR degradation (%)", "setting": "[1]; 10 nM", "value": "7.0 ± 9.3", "unit": "%"}]}
{"compound": "O=C1CCC(N2C(=O)c3ccc(N4CCN(C(=O)CCCCCCCOc5cc6ncnc(Nc7ccc(F)c(Cl)c7)c6cc5OCCCN5CCOCC5)CC4)cc3C2=O)C(=O)N1", "note": "(stereo not drawn) [Compound 6]", "values": [{"measurement": "EGFR degradation (%)", "setting": "[1]; 10 nM", "value": "15.0 ± 4.0", "unit": "%"}]}
{"compound": "O=C1CCC(N2C(=O)c3ccc(N4CCN(CCCCCCCCCCOc5cc6ncnc(Nc7ccc(F)c(Cl)c7)c6cc5OCCCN5CCOCC5)CC4)cc3C2=O)C(=O)N1", "note": "(stereo not drawn) [Compound 7]", "values": [{"measurement": "EGFR degradation (%)", "setting": "[1]; 10 nM", "value": "19.4 ± 15.1", "unit": "%"}]}
{"compound": "O=C1CCC(N2C(=O)c3ccc(N4CCN(CCCC(=O)N5CCN(CCCOc6cc7ncnc(Nc8ccc(F)c(Cl)c8)c7cc6OCCCN6CCOCC6)CC5)CC4)cc3C2=O)C(=O)N1", "note": "(stereo not drawn) [Compound 9]", "values": [{"measurement": "EGFR degradation (%)", "setting": "[1]; 10 nM", "value": "66.3 ± 22.7", "unit": "%"}]}
{"compound": "O=C1CCC(N2C(=O)c3ccc(N4CCN(CCCCN5CCN(CCCOc6cc7ncnc(Nc8ccc(F)c(Cl)c8)c7cc6OCCCN6CCOCC6)CC5)CC4)cc3C2=O)C(=O)N1", "note": "(stereo not drawn) [Compound 10]", "values": [{"measurement": "EGFR degradation (%)", "setting": "[1]; 10 nM", "value": "32.4 ± 17.1", "unit": "%"}]}
{"compound": "O=C1CCC(N2C(=O)c3ccc(N4CCN(CCN5CCN(CCOc6cc7ncnc(Nc8ccc(F)c(Cl)c8)c7cc6OCCCN6CCOCC6)CC5)CC4)cc3C2=O)C(=O)N1", "note": "(stereo not drawn) [Compound 11]", "values": [{"measurement": "EGFR degradation (%)", "setting": "[1]; 10 nM", "value": "25.1 ± 11.2", "unit": "%"}]}
{"compound": "O=C1CCC(N2C(=O)c3ccc(N4CCN(CCN5CCN(CCCOc6cc7ncnc(Nc8ccc(F)c(Cl)c8)c7cc6OCCCN6CCOCC6)CC5)CC4)cc3C2=O)C(=O)N1", "note": "(stereo not drawn) [Compound 12]", "values": [{"measurement": "Levels of pEGFR and pAKT", "setting": "[2]", "value": "markedly reduced"}, {"measurement": "Effect on viability", "setting": "[3]", "value": "did not affect the viability"}, {"measurement": "IC50", "setting": "[4]; HCC827, 48 h, HCC827, 48 h incubation", "value": "~30.7", "unit": "nM"}, {"measurement": "IC50", "setting": "[4]; HCC827, 96 h, HCC827, 96 h incubation", "value": "~25.6", "unit": "nM"}, {"measurement": "Degradation of EGFR^WT protein", "setting": "[5]", "value": "neither compound degraded"}, {"measurement": "Effect on viability", "setting": "[6]", "value": "did not affect the viability"}, {"measurement": "EGFR degradation (%)", "setting": "[1]; 10 nM", "value": "60.0% ± 6.9% and 60.0 ± 6.9%"}, {"measurement": "Earliest time at which EGFR^Del19 degradation observed", "setting": "[1]; HCC827 cells, 10 nM", "value": 2, "unit": "h"}, {"measurement": "Dmax", "setting": "[1]; HCC827 cells, 24 h, dose-response", "value": 85.1, "unit": "%"}, {"measurement": "DC50", "setting": "[1]; HCC827 cells, 24 h treatment", "value": 1.94, "unit": "nM"}, {"measurement": "Effect on viability", "setting": "[7]", "value": "did not affect the viability"}, {"measurement": "Degradation of EGFR^L858R/T790M protein", "setting": "[8]", "value": "neither compound degraded"}]}
{"compound": "O=C1CCC(N2C(=O)c3ccc(N4CCN(CCCN5CCN(CCOc6cc7ncnc(Nc8ccc(F)c(Cl)c8)c7cc6OCCCN6CCOCC6)CC5)CC4)cc3C2=O)C(=O)N1", "note": "(stereo not drawn) [Compound 13]", "values": [{"measurement": "EGFR degradation (%)", "setting": "[1]; 10 nM", "value": "16.8 ± 10.5", "unit": "%"}]}
{"compound": "COc1cc2c(Nc3ccc(F)c(Cl)c3)ncnc2cc1OCCCN1CCN(CCN2CCN(c3ccc4c(c3)C(=O)N(C3CCC(=O)N(C)C3=O)C4=O)CC2)CC1", "note": "(stereo not drawn) [Compound 15]", "values": [{"measurement": "Degradation activity, in words", "setting": "[1]; 10 nM", "value": "completely lost its degradation ability"}]}
{"compound": "CC(C)C[C@@H](C=O)NC(=O)[C@H](CC(C)C)NC(=O)[C@H](CC(C)C)NC(=O)OCc1ccccc1", "note": "[MG132, reference compound] (Cbz-Leu-Leu-Leu-aldehyde)", "values": [{"measurement": "Effect of inhibitor pretreatment on EGFR^Del19 degradation induced by compound 14", "setting": "[1]", "value": "restored"}]}
{"compound": "NS(=O)(=O)OC[C@@H]1C[C@@H](n2ccc3c(N[C@H]4CCc5ccccc54)ncnc32)C[C@@H]1O", "note": "[MLN4924, reference compound]", "values": [{"measurement": "Effect of inhibitor pretreatment on EGFR^Del19 degradation induced by compound 14", "setting": "[1]", "value": "restored"}]}
{"compound": "COc1cc2ncnc(Nc3ccc(F)c(Cl)c3)c2cc1OCCCN1CCOCC1", "note": "[gefitinib, reference compound]", "values": [{"measurement": "Effect on viability", "setting": "[3]", "value": "did not affect the viability"}, {"measurement": "Effect on viability", "setting": "[6]", "value": "did not affect the viability"}, {"measurement": "Effect on viability", "setting": "[7]", "value": "did not affect the viability"}]}
{"compound": "O=C1CCC(N2C(=O)c3ccccc3C2=O)C(=O)N1", "note": "(stereo not drawn) [thalidomide, reference compound]", "values": [{"measurement": "Influence on viability of HCC827 cells", "setting": "[4]; up to 200 nM", "value": "no influence"}, {"measurement": "Rescue of EGFR^Del19 reduction induced by compound 12 or 14 (competition)", "setting": "[1]; 100 times the degrader dose (1 μM)", "value": "slight decrease in EGFR^Del19 was still observed"}, {"measurement": "Rescue of EGFR^Del19 reduction induced by compound 12 or 14 (competition)", "setting": "[1]; 500 times the degrader dose (5 μM)", "value": "completely rescue"}]}
